This note sets out measurements from patent US20120040930A1, “TETRACYCLIC TERPENE SERIES COMPOUNDS, METHODS FOR PREPARING SAME, USES THEREOF AS MEDICINES AND PHARMACEUTICAL COMPOUNDS CONTAINING SAME” (priority 2005, published 2012).

“And” between values parts separate entries of the source, which are not always exact repeats. Equal entries are not always repeated. Where two headings read alike, the source gives them in different places.

Test [1] has as its target T1, human serum butyrylcholinesterase (BChE) (Homo sapiens, UniProt P06276).
T1 construct: BChE isolated from human serum; from tissue; host or cells: human serum
Briefly: biochemical.

For test [2], the target named is T2, acetylcholinesterase (AChE) isolated from Electrophorus electricus (Electrophorus electricus, UniProt O42275).
T2 construct: AChE isolated from Electrophorus electricus; from tissue
Briefly: biochemical.

In test [3] the test system is muscle nicotinic acetylcholine receptors. Nature of the test: Electrophysiology: interaction with muscle nicotinic acetylcholine receptors, frog neuromuscular junction. Conditions: 160 μM. An excerpt:
(§1) Secondly, the inventors determined, using electrophysiology, the ability of compound 8e to interact with muscle nicotinic acetylcholine receptors.

Test [4] deals with skeletal neuromuscular junction. Briefly: Cellular electrophysiology on isolated mouse neuromuscular preparations. The protocol: This extension of synaptic potentials is observed when the mouse neuromuscular preparations are placed in a normal survival medium (Krebs-Ringer) containing (in mM) NaCl, 151; KCl, 5; MgCl2, 1; CaCl2, 2; glucose, 11; and HEPES-NaOH, 5 (pH 7.4); and when the survival medium contains low concentrations of CaCl2 (0.4-1 mM) and high concentrations of MgCl2 (4-8 mM) to reduce the release of acetylcholine. The extension of synaptic potentials at the neuromuscular junction reflects the mean lifespan of synaptic channels opened by acetylcholine during their interactions with skeletal muscle nicotinic receptors. Inhibition of acetylcholinesterase increases acetylcholine concentration at the synaptic cleft, which allows acetylcholine to bind repeatedly with these receptors, thus extending the duration of synaptic responses.
Thus, the inhibition of acetylcholinesterase by this compound is not accompanied by depolarization of the muscle membrane.
From a pharmacological point of view, the inventors first tested the ability of compound 8e to modify nerve axon conduction.

For test [5], the target named is T3, muscle nicotinic acetylcholine receptors (Mus musculus, UniProt P02716+P04756+P09690+P20782).
T3 construct: isolated living vertebrate (frog and mouse) neuromuscular preparations; from tissue; host or cells: isolated mouse neuromuscular preparation
Nature of the test: Electrophysiology: interaction with muscle nicotinic acetylcholine receptors, mouse neuromuscular junction.
Text: as §1

The mark [6] stands for this setting: human serum BChE, read-out: BChE.
[7] abbreviates: AChE isolated from Electrophorus electricus, read-out: AChE IC50.

T1 sequence (P06276 29-602): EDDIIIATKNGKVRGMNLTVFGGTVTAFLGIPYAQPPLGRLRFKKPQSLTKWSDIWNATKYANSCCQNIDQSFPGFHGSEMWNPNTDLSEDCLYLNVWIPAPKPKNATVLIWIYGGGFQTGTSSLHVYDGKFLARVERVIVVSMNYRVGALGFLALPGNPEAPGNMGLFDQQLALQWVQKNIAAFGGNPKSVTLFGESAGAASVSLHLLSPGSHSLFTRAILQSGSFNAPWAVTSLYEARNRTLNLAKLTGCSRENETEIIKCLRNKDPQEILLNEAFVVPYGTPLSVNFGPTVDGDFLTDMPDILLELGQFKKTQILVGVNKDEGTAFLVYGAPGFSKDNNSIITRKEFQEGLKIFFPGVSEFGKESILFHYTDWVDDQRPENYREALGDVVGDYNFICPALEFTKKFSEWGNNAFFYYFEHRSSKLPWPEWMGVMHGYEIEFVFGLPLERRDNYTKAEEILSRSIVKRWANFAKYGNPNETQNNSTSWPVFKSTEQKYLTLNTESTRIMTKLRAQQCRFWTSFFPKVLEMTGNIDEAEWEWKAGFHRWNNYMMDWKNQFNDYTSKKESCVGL
T2 sequence (O42275 24-633): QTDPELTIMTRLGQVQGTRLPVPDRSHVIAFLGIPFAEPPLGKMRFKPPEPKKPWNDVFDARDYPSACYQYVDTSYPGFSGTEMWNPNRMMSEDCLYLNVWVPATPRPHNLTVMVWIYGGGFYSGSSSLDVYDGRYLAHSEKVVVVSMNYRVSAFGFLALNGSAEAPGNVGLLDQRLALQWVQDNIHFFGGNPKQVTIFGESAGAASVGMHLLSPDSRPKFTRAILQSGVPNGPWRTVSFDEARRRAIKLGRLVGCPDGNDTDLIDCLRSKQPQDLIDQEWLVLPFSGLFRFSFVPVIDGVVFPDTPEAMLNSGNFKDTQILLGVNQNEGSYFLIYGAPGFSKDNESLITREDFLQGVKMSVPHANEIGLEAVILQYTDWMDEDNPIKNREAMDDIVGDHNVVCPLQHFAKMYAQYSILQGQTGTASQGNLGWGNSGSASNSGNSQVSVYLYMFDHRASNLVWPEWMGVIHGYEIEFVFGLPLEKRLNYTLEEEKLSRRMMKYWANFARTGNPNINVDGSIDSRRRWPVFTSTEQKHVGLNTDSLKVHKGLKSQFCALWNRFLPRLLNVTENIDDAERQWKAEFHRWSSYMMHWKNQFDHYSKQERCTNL
T3 sequence (P04756 21-457): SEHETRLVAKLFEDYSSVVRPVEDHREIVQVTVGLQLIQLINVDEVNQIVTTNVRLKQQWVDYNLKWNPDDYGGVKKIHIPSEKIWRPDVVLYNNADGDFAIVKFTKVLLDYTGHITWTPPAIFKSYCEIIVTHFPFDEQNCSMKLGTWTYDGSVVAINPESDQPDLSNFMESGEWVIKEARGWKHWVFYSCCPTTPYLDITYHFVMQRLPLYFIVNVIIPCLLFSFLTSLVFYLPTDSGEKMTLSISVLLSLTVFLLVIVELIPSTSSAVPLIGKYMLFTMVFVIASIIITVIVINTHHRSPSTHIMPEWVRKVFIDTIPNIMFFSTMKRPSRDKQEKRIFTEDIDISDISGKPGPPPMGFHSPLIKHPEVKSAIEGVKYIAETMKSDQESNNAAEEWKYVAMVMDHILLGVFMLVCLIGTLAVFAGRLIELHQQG
T3 sequence (P09690 24-501): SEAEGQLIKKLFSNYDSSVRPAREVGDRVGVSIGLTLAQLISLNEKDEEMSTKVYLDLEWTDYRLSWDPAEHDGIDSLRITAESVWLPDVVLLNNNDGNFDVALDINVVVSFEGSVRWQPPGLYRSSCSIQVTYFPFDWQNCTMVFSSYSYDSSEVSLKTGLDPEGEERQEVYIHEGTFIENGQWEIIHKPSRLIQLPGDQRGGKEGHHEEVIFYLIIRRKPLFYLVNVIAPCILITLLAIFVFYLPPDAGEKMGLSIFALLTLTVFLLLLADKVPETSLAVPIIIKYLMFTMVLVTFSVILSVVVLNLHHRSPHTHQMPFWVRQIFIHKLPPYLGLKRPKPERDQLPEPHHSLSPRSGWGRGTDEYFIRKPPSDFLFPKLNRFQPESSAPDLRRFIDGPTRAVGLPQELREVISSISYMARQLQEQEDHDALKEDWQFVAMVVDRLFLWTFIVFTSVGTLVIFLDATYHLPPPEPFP
T3 sequence (P02716 25-520): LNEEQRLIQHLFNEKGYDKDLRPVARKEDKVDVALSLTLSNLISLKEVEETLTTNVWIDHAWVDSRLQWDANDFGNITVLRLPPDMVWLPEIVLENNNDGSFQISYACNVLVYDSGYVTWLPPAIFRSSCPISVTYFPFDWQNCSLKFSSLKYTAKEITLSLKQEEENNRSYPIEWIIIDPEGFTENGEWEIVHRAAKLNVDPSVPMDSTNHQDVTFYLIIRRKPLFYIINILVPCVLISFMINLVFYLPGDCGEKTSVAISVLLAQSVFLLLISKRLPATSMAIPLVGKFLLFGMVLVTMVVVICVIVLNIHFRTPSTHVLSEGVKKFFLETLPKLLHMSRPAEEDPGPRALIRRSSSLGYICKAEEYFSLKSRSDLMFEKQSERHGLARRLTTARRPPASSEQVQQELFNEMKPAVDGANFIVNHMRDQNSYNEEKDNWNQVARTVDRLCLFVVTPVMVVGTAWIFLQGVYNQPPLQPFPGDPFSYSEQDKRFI
T3 sequence (P20782 21-493): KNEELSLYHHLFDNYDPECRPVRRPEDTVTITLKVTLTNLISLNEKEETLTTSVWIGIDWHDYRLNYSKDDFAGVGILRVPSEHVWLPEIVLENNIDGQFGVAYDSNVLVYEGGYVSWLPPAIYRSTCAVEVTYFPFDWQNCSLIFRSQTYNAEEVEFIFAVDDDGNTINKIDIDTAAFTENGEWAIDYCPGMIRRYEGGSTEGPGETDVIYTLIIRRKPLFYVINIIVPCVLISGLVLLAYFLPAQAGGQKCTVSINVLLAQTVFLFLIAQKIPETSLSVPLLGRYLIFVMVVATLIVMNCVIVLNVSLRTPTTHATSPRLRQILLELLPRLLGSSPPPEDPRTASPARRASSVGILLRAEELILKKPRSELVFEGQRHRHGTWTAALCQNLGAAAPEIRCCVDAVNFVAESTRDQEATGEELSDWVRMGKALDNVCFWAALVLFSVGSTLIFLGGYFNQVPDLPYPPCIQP

Turning to `CC(C)C1=NC2CC=C3C[C@H]4C(=O)C[C@]5(C)[C@@H]([C@H](C)N(C)C)[C@H](O)C[C@@]5(C)[C@@H]4CC[C@H]3[C@]2(C)CO1` (stereo partly drawn) [Compound 1, (20S)-10(9->1)abeo-4,14α-dimethyl-20-dimethylamino-(2′-isopropyl-4′,4′-dihydro[3′,1′]oxazine)-5α,9-pregn-1(10)-en-16α-ol-11-one], the IC50 in test [1] (setting [6]) was more than 1000 nM; in test [2] (setting [7]) it was 31 nM and 32 nM.

As to `CC(C)C(=O)N[C@H]1CCC23C[C@]24C(=O)C[C@]2(C)[C@@H]([C@H](C)N(C)C)[C@H](OC(=O)C(C)(C)C)C[C@@]2(C)[C@@H]4CC[C@H]3[C@]1(C)/C=N/Cc1ccccc1` (stereo partly drawn) [Compound 19, (20S)-16α-pivalyl-3-isobutyrylamino-9,19-cyclo-4α-benzyliminomethyl-4,14α-dimethyl-20-dimethylamino-5α,9-pregnan-11-one], the IC50 was 1280 nM in test [1] (setting [6]) and more than 1000 nM in test [2] (setting [7]).

Turning to `C[C@@H]([C@H]1[C@H](O)C[C@@]2(C)[C@@H]3CC[C@@H]4C(=CC[C@H](NC(=O)C5CCCCC5)[C@@]4(C)CO)C[C@H]3C(=O)C[C@]12C)N(C)C` [Compound 7d, (20S)-10(9->1)abeo-3-(cyclohexanecarboxyamino)-4α-hydroxymethyl-4,14α-dimethyl-20-dimethylamino-5α,9-pregn-1(10)-en-16α-ol-11-one], the IC50 in test [1] (setting [6]) was 4020 nM; in test [2] (setting [7]), more than 1000 nM.

Regarding `CC(C)C(=O)N[C@H]1CCC23C[C@]24C(=O)C[C@]2(C)[C@@H]([C@H](C)[N+](C)(C)[O-])[C@H](O)C[C@@]2(C)[C@@H]4CC[C@H]3[C@]1(C)CO` (stereo partly drawn) [Compound 29, (20S)-3-isobutyrylamino-9,19-cyclo-4α-hydroxymethyl-4,14α-dimethyl-20-dimethylazinoyl-5α,9-pregnan-16α,11-ol-11-one], the IC50 in test [1] (setting [6]) is more than 1000 nM; in test [2] (setting [7]) it was 1420 nM.

Consider `CC(C)C1=NC2CC[C@H]3C=C4C(=O)C[C@]5(C)[C@@H]([C@H](C)N(C)C)[C@H](O)C[C@@]5(C)[C@@H]4CC[C@H]3[C@]2(C)CO1` (stereo partly drawn) [Compound 32, (20S)-9(10->19)abeo-4,14α-dimethyl-20-dimethylamino(2′-isopropyl-4′,4′-dihydro[3′,1′]oxazin)-5α,9-pregn-1(10)-en-16α-ol-11-one], for which the IC50 was determined as 1440 nM in test [1] and 112 nM in test [2] (setting [7]).

With `CC[C@H](C)C1=N[C@H]2CC=C3C[C@H]4C(=O)C[C@]5(C)[C@@H]([C@H](C)N(C)C)[C@H](O)C[C@@]5(C)[C@@H]4CC[C@H]3[C@]2(C)CO1` [Compound 8e, (20S)-10(9->1)abeo-4,14α-dimethyl-20-dimethylamino(2′-(S-1-methylpropyl)-4′,4′-dihydro[3′,1′]oxazin)-5α,9-pregn-1(10)-en-16α-ol-11-one], the “block of motor end-plate potentials evoked by motor nerve stimulation” value in test [3] was 80%; in test [5] (160 μM, mouse neuromuscular junction) it was 80%. The IC50 is more than 1000 nM in test [1] (setting [6]) and 13 nM in test [2] (setting [7]). Further, the nerve axon conduction entry in test [4] (1 μM to 300 μM, mouse neuromuscular preparations) is reported as “does not apparently modify nerve conduction”. In test [4] (1-25 μM, mouse neuromuscular preparations, normal Krebs-Ringer or low CaCl2/high MgCl2 medium), the “synaptic response half-times (motor end-plate potentials and miniature end-plate potentials)” value is “produces an extension of synaptic response half-times”. Also, the “effect on muscle fiber resting potentials” value in test [4] (concentrations that extend synaptic potentials and higher (160-200 μM)) is “does not have a significant effect”. The “motor end-plate miniature potentials” value in test [5] (80 μM, species not given) is “causes a decrease in amplitude and blocking”.

For the compound `CCC(=O)N[C@H]1CC=C2C[C@H]3C(=O)C[C@]4(C)[C@@H]([C@H](C)N(C)C)[C@H](O)C[C@@]4(C)[C@@H]3CC[C@H]2[C@]1(C)CO` [Compound 7c, (20S)-10(9->1)abeo-4α-hydroxymethyl-4,14α-dimethyl-20-dimethylamino-3-propionylamino-5α,9-pregn-1(10)-en-16α-ol-11-one], the IC50 was more than 10000 nM in test [1] (setting [6]) and more than 1000 nM in test [2] (setting [7]).

With `CC(=O)O[C@@H]1C[C@@]2(C)[C@@H]3CC[C@@H]4C5(CC[C@H](NC(=O)C(C)C)[C@@]4(C)CO)C[C@@]35C(=O)C[C@]2(C)[C@H]1[C@H](C)N(C)C` (stereo partly drawn) [Compound 13, (20S)-16α-acetyl-3-isobutyrylamino-9,19-cyclo-4α-hydroxymethyl-4,14α-dimethyl-20-dimethylamino-5α,9-pregnan-11-one], the IC50 in test [1] (setting [6]) is more than 1000 nM; in test [2] (setting [7]), more than 10000 nM.

On to `CC(=O)O[C@@H]1C[C@@]2(C)[C@@H]3CC[C@@H]4C5(CC[C@H](NC(=O)C(C)C)[C@@]4(C)COS(=O)(=O)c4ccc(C)cc4)C[C@@]35C(=O)C[C@]2(C)[C@H]1[C@H](C)N(C)C` (stereo partly drawn) [Compound 23, (20S)-16α-acetyl-3-isobutyrylamino-9,19-cyclo-4α-hydroxytosylmethyl-4,14α-dimethyl-20-dimethylamino-5α,9-pregnan-11-one], for which the IC50 is more than 100000 nM in test [1] (setting [6]) and 4370 nM in test [2] (setting [7]).

`C[C@@H]([C@H]1[C@H](O)C[C@@]2(C)[C@@H]3CC[C@@H]4C(=CC[C@H](NC(=O)c5ccccc5)[C@@]4(C)CO)C[C@H]3C(=O)C[C@]12C)N(C)C` [Compound 7b, (20S)-10(9->1)abeo-3-benzoylamino-4α-hydroxymethyl-4,14α-dimethyl-20-dimethylamino-5α,9-pregn-1(10)-en-16α-ol-11-one]: the IC50 in test [1] (setting [6]) is 1880 nM; in test [2] (setting [7]) it was more than 10000 nM.

As for `CC(C)C(=O)NC1CC[C@]23CC24C(=O)C[C@]2(C)[C@@H]([C@H](C)N(C)C)[C@H](O)C[C@@]2(C)[C@@H]4CC[C@H]3[C@]1(C)CO` (stereo in doubt) [Compound 2, (20S)-3-isobutyrylamino-9,19-cyclo-4α-hydroxymethyl-4,14α-dimethyl-20-dimethylamino-5α,9-pregnan-16α-ol-11-one], the IC50 in test [1] (setting [6]) and in test [2] (AChE IC50) was more than 10000 nM in each case.

For `CC(=O)O[C@@H]1C[C@@]2(C)[C@@H]3CC[C@@H]4C5(CC[C@H](NC(=O)C(C)C)[C@@]4(C)C=O)C[C@@]35C(=O)C[C@]2(C)[C@H]1[C@H](C)N(C)C` (stereo partly drawn) [Compound 14, (20S)-16α-acetyl-3-isobutyrylamino-9,19-cyclo-4α-formyl-4,14α-dimethyl-20-dimethylamino-5α,9-pregnan-11-one], the IC50 in test [1] (setting [6]) and in test [2] (setting [7]) was more than 1000 nM each time.

Turning to `CCC(C)C(=O)N[C@H]1CC=C2C[C@H]3C(=O)C[C@]4(C)[C@@H]([C@H](C)N(C)C)[C@H](O)C[C@@]4(C)[C@@H]3CC[C@H]2[C@]1(C)CO` (stereo partly drawn) [Compound 7e, (20S)-10(9->1)abeo-4α-hydroxymethyl-4,14α-dimethyl-20-dimethylamino-3 (S-2-methylbutyrylamino)-5α,9-pregn-1(10)-en-16α-ol-11-one], the IC50 was more than 10000 nM in test [1] (setting [6]) and 105 nM in test [2] (AChE IC50).

`CC(C)C(=O)N[C@H]1CCC23C[C@]24C(=O)C[C@]2(C)[C@@H]([C@H](C)N(C)C)[C@H](O)C[C@@]2(C)[C@@H]4CC[C@H]3[C@]1(C)COCc1ccccc1` (stereo partly drawn) [Compound 27]: the IC50 came out at 5200 nM in test [1] (setting [6]) and 16800 nM in test [2] (setting [7]).

As to `C[C@@H]([C@H]1[C@H](O)C[C@@]2(C)[C@@H]3CC[C@@H]4C5(CC[C@H](NC(=O)C6CCCCC6)[C@@]4(C)CO)C[C@@]35C(=O)C[C@]12C)N(C)C` (stereo partly drawn) [Compound 6d, (20S)-3-(cyclohexanecarboxylamino)-9,19-cyclo-4α-hydroxymethyl-4,14α-dimethyl-20-dimethylamino-5α,9-pregnan-16α-ol-11-one], the IC50 in test [1] (setting [6]) was more than 5000 nM; in test [2] (setting [7]), more than 10000 nM.
